Legend:
B16 melanoma tumor = test: Antitumor activity in vivo, solid tumor of B-16 mouse melanoma; set-up: species or system mice; details: 40 mg/kg, 9th day of treatment
[1] = Acute toxicity, single intraperitoneal dose, Litchfield-Wilcoxon; type: in vivo, mice; details: mouse, in vivo, ip, i.p. single dose, 14th day
Procedure: (§1) The comparative analysis of the acute toxic action of the temozolomide substance and of the polymeric composition based thereon (Composition 1 as in Example 1) was performed on male and female Balb/c mice weighing 19-21 g as of the time of testing, 6 animals in each group. The mice were kept in standard cages No. 4, in the conditions of unlimited access to water and food, at natural lighting changes. Testing the toxic action of the drugs started upon a two-week isolation period of the animals. The drug was administered intraperitoneally, as a single dose. Water for injection was used as a medium. Upon the drug administration, the animals were continuously monitored for 24 hours. The total observation time was 28 days. According to the research results, the LD50 values were calculated as per the state of animals on the 14th day upon the administration of the drugs. The value of the mean lethal dose (LD50) was determined by Litchfield-Wilcoxon method [Belenky M. L. Elementy kolichestvennoy otsenki farmakologicheskogo effekta [In Russian: Elements of Drug-Induced Effect Quantitative Estimation]/2-e izd. pererab. i dop. L.: Medgiz, 1963. p. 81-106].

Balb/c mice = test: as above; type: in vivo; details: i.p. single dose; for LD16 / LD84 / LD100: 14th day
Procedure: as §1

[2] = clinical trials; cited from earlier work

In the case of `Cn1nnc2c(C(N)=O)ncn2c1=O` [Temozolomide Substance, 8-carbamoyl-3-methyl-imidazo[5,1-d]-1,2,3,5-tetrazin-4-(3H)-one], the “tumor growth inhibition (TGI)” value (B16 melanoma tumor) was 90%, the LD50 at 14 days ([1]; female Balb/c mice) was 467 mg/kg and the LD50 at 14 days ([1]; male Balb/c mice) was 472 mg/kg. The Toxic dose range (Balb/c mice; female Balb/c mice) was “Toxic dose range was 426.5-526.7 mg/kg”, the LD16 (Balb/c mice; female Balb/c mice) was “LD16 426.5 mg/kg” and the LD84 (Balb/c mice; female Balb/c mice) was “LD84 506.7 mg/kg”. For the same compound, the LD100 (Balb/c mice; female Balb/c mice) was “LD100 526.7 mg/kg”, the Toxic dose range (Balb/c mice; male Balb/c mice) was “Toxic dose range was 424.0-543.5 mg/kg” and the LD16 (Balb/c mice; male Balb/c mice) was “LD16 424.0 mg/kg”. For the same compound, the LD84 (Balb/c mice; male Balb/c mice) was “LD84 519.6 mg/kg”, the LD100 (Balb/c mice; male Balb/c mice) was “LD100 543.5 mg/kg” and the half lifetime [2] was 1.8 h.

— patent US20150328169A1, “POLYMERIC PARTICLES-BASED TEMOZOLOMIDE DOSAGE FORM” (OY FILANA LTD, priority 2012, published 2015)
